From the NIST ThermoML archive (doi:10.1021/je5008795)

How the values were obtained:
[1] = xn = mol fraction of the nth substance listed; details: 298.15 K, 101 kPa, Liquid, Vibrating tube method
[2] = refractive index (Na D-line) (dimensionless); xn = mol fraction of the nth substance listed; details: 298.15 K, 101 kPa, Liquid, Standard Abbe refractometry
[3] = for vapor or sublimation pressure: Transpiration method; for Normal melting temperature: DTA; for mass density: 298.15 K, 101 kPa, Vibrating tube method
[4] = Molar enthalpy of transition or fusion; details: Crystal; DSC
[5] = refractive index (Na D-line) (dimensionless); details: 298.15 K; 101.33 kPa; Liquid; Standard Abbe refractometry

c1ccccc1 [benzene] + Brc1ccc(Br)cc1
x2 = 0
Details	mass density [kg/m3]	refractive index
[1]	873.671	–
[2]	–	1.49755

c1ccccc1 [benzene] + Brc1ccc(-c2ccccc2)cc1
x2 = 0
Details	mass density [kg/m3]	refractive index
[1]	873.616	–
[2]	–	1.49755

Brc1ccc(Br)c2ccccc12 [1,4-dibromonaphthalene] + c1ccccc1
Details	mass density, x1 = 0.00087 [kg/m3]	mass density, x1 = 0.00189 [kg/m3]	mass density, x1 = 0.00208 [kg/m3]	mass density, x1 = 0.00321 [kg/m3]	refractive index, x1 = 0.00087	refractive index, x1 = 0.00189	refractive index, x1 = 0.00208	refractive index, x1 = 0.00321
[1]	875.112	876.792	877.158	879.019	–	–	–	–
[2]	–	–	–	–	1.49786	1.4982	1.49828	1.49872

Brc1ccccc1Br [1,2-dibromobenzene]
[3], Liquid
Details	vapor or sublimation pressure [kPa]
290.3 K	0.01251
292.4 K	0.01408
292.5 K	0.01451
295.8 K	0.01802
298.2 K	0.02158
301.2 K	0.02661
304.2 K	0.03482
307.3 K	0.04115
310.2 K	0.05236
313.2 K	0.06399
316.3 K	0.07736
319.3 K	0.09284
320.6 K	0.09686
322.1 K	0.1075
325.2 K	0.1324
325.3 K	0.135
328.2 K	0.1579

Brc1c2ccccc2c(Br)c2ccccc12 [9,10-dibromoanthracene]
Details	Normal melting temperature [°C]
[3], Crystal	224.7

Details	Molar enthalpy of transition or fusion [kcal/mol]
[4]	6.86

Brc1cccc(Br)c1 [1,3-dibromobenzene]
[3], Liquid
Details	vapor or sublimation pressure [kPa]
276.4 K	0.00508
278.7 K	0.00646
281.1 K	0.00785
282.3 K	0.0086
284.7 K	0.01072
286.9 K	0.01274
288.8 K	0.01468
289.2 K	0.0154
292.3 K	0.01899
292.8 K	0.01997
295 K	0.02324
296.2 K	0.02592
298.8 K	0.03143
301 K	0.03698
301.1 K	0.03822
304.2 K	0.04771
304.9 K	0.0474
307.2 K	0.05893
308.9 K	0.06635
310 K	0.07138
312.9 K	0.08294
313.3 K	0.08608
315.2 K	0.1012
317.8 K	0.1178

c1ccccc1 [benzene] + Brc1ccc(-c2ccc(Br)cc2)cc1
x2 = 0
Details	mass density [kg/m3]	refractive index
[1]	873.633	–
[2]	–	1.49755

Brc1ccc(Br)cc1 [1,4-dibromobenzene] + c1ccccc1
Details	mass density, x1 = 0.0018 [kg/m3]	mass density, x1 = 0.00185 [kg/m3]	mass density, x1 = 0.0025 [kg/m3]	mass density, x1 = 0.0033 [kg/m3]	refractive index, x1 = 0.0018	refractive index, x1 = 0.00185	refractive index, x1 = 0.0025	refractive index, x1 = 0.0033
[1]	876.211	876.342	877.295	878.419	–	–	–	–
[2]	–	–	–	–	1.49781	1.49784	1.49795	1.49808

c1ccccc1 [benzene] + Brc1ccccc1Br
x2 = 0
Details	mass density [kg/m3]	refractive index
[1]	873.478	–
[2]	–	1.49776

Brc1ccc(-c2ccccc2)cc1 [4-bromo-1,1'-biphenyl] + c1ccccc1
Details	mass density, x1 = 0.00109 [kg/m3]	mass density, x1 = 0.00186 [kg/m3]	mass density, x1 = 0.00189 [kg/m3]	mass density, x1 = 0.00237 [kg/m3]	refractive index, x1 = 0.00109	refractive index, x1 = 0.00186	refractive index, x1 = 0.00189	refractive index, x1 = 0.00237
[1]	874.692	875.469	875.45	875.983	–	–	–	–
[2]	–	–	–	–	1.49787	1.4981	1.49809	1.4982

Brc1ccc(Br)c2ccccc12 [1,4-dibromonaphthalene]
Details	Normal melting temperature [°C]
[3], Crystal	80.0

Details	Molar enthalpy of transition or fusion [kcal/mol]
[4]	5.04

Clc1c2ccccc2c(Cl)c2ccccc12 [9,10-dichloroanthracene]
Details	Normal melting temperature [°C]
[3], Crystal	213.5

Details	Molar enthalpy of transition or fusion [kcal/mol]
[4]	6

Brc1ccc(Br)cc1 [1,4-dibromobenzene]
[3], Crystal
Details	vapor or sublimation pressure [kPa]
296.5 K	0.00693
299.5 K	0.00922
302.4 K	0.01272
303.5 K	0.01383
305.4 K	0.01701
308.4 K	0.02188
309.4 K	0.02467
311.4 K	0.02936
314.4 K	0.03757
317.4 K	0.04642
319.4 K	0.05898
320.4 K	0.06313
323.4 K	0.08309
329.6 K	0.143

c1ccccc1 [benzene]
Details	mass density
[3], Liquid	873.633 kg/m3 [middle of 6 runs]

Details	refractive index
[5]	1.49755

Brc1ccc(-c2ccc(Br)cc2)cc1 [4,4'-dibromo-1,1'-biphenyl] + c1ccccc1
Details	mass density, x1 = 0.00076 [kg/m3]	mass density, x1 = 0.0009 [kg/m3]	mass density, x1 = 0.00107 [kg/m3]	mass density, x1 = 0.00116 [kg/m3]	refractive index, x1 = 0.00076	refractive index, x1 = 0.0009	refractive index, x1 = 0.00107	refractive index, x1 = 0.00116
[1]	875.001	875.213	875.48	875.632	–	–	–	–
[2]	–	–	–	–	1.49787	1.49791	1.49796	1.49802

Clc1c2ccccc2cc2ccccc12 [9-chloroanthracene]
Details	Normal melting temperature [°C]
[3], Crystal	103.5

Details	Molar enthalpy of transition or fusion [kcal/mol]
[4]	5.26

Brc1ccccc1Br [1,2-dibromobenzene] + c1ccccc1
Details	mass density, x1 = 0.00278 [kg/m3]	mass density, x1 = 0.00365 [kg/m3]	mass density, x1 = 0.00738 [kg/m3]	mass density, x1 = 0.01251 [kg/m3]	refractive index, x1 = 0.00278	refractive index, x1 = 0.00365	refractive index, x1 = 0.00738	refractive index, x1 = 0.01251
[1]	877.563	878.834	884.292	891.807	–	–	–	–
[2]	–	–	–	–	1.49816	1.49829	1.49882	1.49961

ClC(Cl)(Cl)Cl [tetrachloromethane]
Details	mass density [kg/m3]
[3], Liquid	1584.26

Details	refractive index
[5]	1.45715

c1ccccc1 [benzene] + Brc1ccc(Br)c2ccccc12
x2 = 0
Details	mass density [kg/m3]	refractive index
[1]	873.652	–
[2]	–	1.49755

Brc1ccc(-c2ccccc2)cc1 [4-bromo-1,1'-biphenyl]
[3], Crystal
Details	vapor or sublimation pressure [kPa]
303.2 K	9e-05
308.2 K	0.00016
313 K	0.00027
318.3 K	0.00048
323.4 K	0.00083
326.2 K	0.00109
328.2 K	0.00137
333.3 K	0.0023
338.3 K	0.00364
343.1 K	0.0056
348.3 K	0.00907
353 K	0.01426
355.7 K	0.0165
358.4 K	0.02207
360.2 K	0.0253

Details	Normal melting temperature [°C]
[3], Crystal	89.0

Details	Molar enthalpy of transition or fusion [kcal/mol]
[4]	3.9

c1ccccc1 [benzene] + Clc1ccc(Br)cc1
x2 = 0
Details	mass density [kg/m3]	refractive index
[1]	873.613	–
[2]	–	1.49755

Brc1ccc(-c2ccc(Br)cc2)cc1 [4,4'-dibromo-1,1'-biphenyl]
[3], Crystal
Details	vapor or sublimation pressure [kPa]
358.1 K	0.00038
363.9 K	0.00067
365.4 K	0.00077
368.4 K	0.00099
373.5 K	0.00162
378.5 K	0.00243
383.5 K	0.00367
388.6 K	0.00579
393.3 K	0.00851
396.6 K	0.01049
399.6 K	0.0138
400.4 K	0.0144
402.6 K	0.0171
404.4 K	0.02039

ClC(Cl)(Cl)Cl [tetrachloromethane] + Clc1c(Cl)c(Cl)c(Cl)c(Cl)c1Cl
x2 = 0
Details	mass density [kg/m3]	refractive index
[1]	1584.26	–
[2]	–	1.45715

Clc1c(Cl)c(Cl)c(Cl)c(Cl)c1Cl [hexachlorobenzene] + ClC(Cl)(Cl)Cl
Details	mass density, x1 = 0.00028 [kg/m3]	mass density, x1 = 0.00052 [kg/m3]	mass density, x1 = 0.00066 [kg/m3]	mass density, x1 = 0.00094 [kg/m3]	refractive index, x1 = 0.00028	refractive index, x1 = 0.00052	refractive index, x1 = 0.00066	refractive index, x1 = 0.00094
[1]	1584.37	1584.53	1584.53	1584.63	–	–	–	–
[2]	–	–	–	–	1.45724	1.45734	1.45735	1.45743

Clc1ccc(Br)cc1 [1-bromo-4-chlorobenzene] + c1ccccc1
Details	mass density, x1 = 0.00231 [kg/m3]	mass density, x1 = 0.00253 [kg/m3]	mass density, x1 = 0.00268 [kg/m3]	refractive index, x1 = 0.00231	refractive index, x1 = 0.00253	refractive index, x1 = 0.00268
[1]	875.875	876.093	876.25	–	–	–
[2]	–	–	–	1.49779	1.49781	1.49782
